The text below walks through data of patent US12365699B2, “Elastase inhibitor prodrug and use thereof” (SUZHOU ARK BIOPHARMACEUTICAL CO., LTD., priority 2020, dated 2025).

The nature of data set [1]: In vivo pharmacokinetics in mice, pulmonary drug concentration after intratracheal administration. Details: species or system male C57BL/6 mice. The following applies: intratracheal 2 mg/kg. From the text: Compare the pharmacokinetics of the final prodrug compound of Example 1 and the control example (compound 52 in WO 2018/175173 A1) in mice:
7-9-week-old male C57BL/6 mice were randomly divided into two groups after the adaptation phase: the elastase inhibitor control group and the Example 1 group.

A short description of data set [2]: Stability test of prodrug in simulated lung fluids (Gamble's buffer, ALF buffer) at 37° C., HPLC ratio of prodrug and hydrolyzate. In kind it is physicochemical. The conditions noted are these: for ratio of the hydrolysis: within half an hour, ratio maintained for the next 20 hours; for hydrolysis: linear hydrolysis. On the procedure:
(§1) Two simulated lung fluids including Gamble's buffer and ALF buffer were prepared according to literature reports (Marques M. R. C., Loebenberg R., Almukainzi M., Simulated Biological Fluids with Possible Application in Dissolution Testing, Dissolution Technologies, 2011, 18(3): 15-28) to test the prodrug stability in simulated lung fluids. In addition, according to the need for animal experimental preparations and sample analysis, three different solvents were prepared: vehicle for animal experiments (water with 5% ethanol), anhydrous ethanol and acetonitrile. They were used to test the stability of pre-dose formulations in animals and collected samples during analysis. Dissolve example 1 compound (2 mg) and example 2 compound (2 mg) in 1 mL of the above-filtered buffer or solvent, respectively. Observe whether there is undissolved particulate matter after vortex shaking, and then filter the suspension or solution to remove undissolved compounds and immediately take 100 μL as the sample at the start of the stability test. Then the ratio of prodrug and hydrolyzate (namely compound 52 in WO 2018/175173 A1, used as a control) was analyzed by HPLC. Afterwards the samples in the two simulated lung fluids were placed on an orbital shaker at 37° C. and shaken at 200 rpm, and sampling at 0.5 hours, 1 hour, 2 hours, 4 hours and 20 hours, and the ratio of prodrug and hydrolyzate were analyzed by HPLC immediately. Let the samples dissolved in the three solvents stand at room temperature, sampling at 1 hour, 3 hours, and 18 hours, and the ratio of prodrug and hydrolyzate were immediately detected.

Data set [3] is described as follows: Stability test of prodrug in different solvents (vehicle water with 5% ethanol, anhydrous ethanol, acetonitrile) at room temperature. In kind it is physicochemical. The method, then: as §1
Setting [4] is: male, C57BL/6, mouse, lung, other: intratracheal, parent compound dosed, read-out: drug concentration in the lungs.

As for `CC(C)[C@H](NC(=O)[C@@H]1CCCN1C(=O)[C@@H](NC(=O)c1ccc(C(=O)NCC(=O)O)cc1)C(C)C)B(O)O` [control example, N-(4-(((S)-1-((S)-2-(((R)-1-borono-2-methylpropyl)carbamoyl)pyrrolidin-1-yl)-3-methyl-1-oxobutan-2-yl)carbamoyl)benzoyl)glycine, reference compound], the “drug concentration in the lungs” value in data set [1] (parent compound dosed, at 12 hours) is reported as “completely cleared”. Also, in data set [1] (setting [4]), the concentration at 6 h came to 153 ng/g.

As to `CC(C)[C@H](NC(=O)[C@@H]1CCCN1C(=O)[C@@H](NC(=O)c1ccc(C(=O)NCC(=O)O)cc1)C(C)C)B1O[C@@H]2C[C@@H]3C[C@@H](C3(C)C)[C@]2(C)O1` [Example 1, N-(4-(((S)-3-methyl-1-((S)-2-(((R)-2-methyl-1-((3aS,4S,6S,7aR)-3a,5,5-trimethylhexahydro-4,6-methanobenzo[d][1,3,2]dioxaborol-2-yl)propyl)carbamoyl)pyrrolidin-1-yl)-1-oxobutan-2-yl)carbamoyl)benzoyl)glycine], the “ratio of the hydrolysis” value in data set [2] (acidic ALF buffer (pH 4.5)) is 40%; in data set [2] (neutral Gamble's buffer (pH 7.4)), 25%. Besides, the hydrolysis in acetonitrile result in data set [3] (up to 18 hours) is recorded as “hardly hydrolyzed”. Moreover, in data set [3] (anhydrous ethanol, up to 18 hours), the “hydrolysis in anhydrous ethanol” value is on record as “hardly hydrolyzed”. The “hydrolyzed in the resolvent” value in data set [3] (resolvent, after 18 hours) is “about 20%”; in data set [3] (resolvent, in 3 hours), “about 18%”. The “conversion of prodrug in mice” value in data set [1] is recorded as “quickly converted into the control example”. The “effect on lung concentration and residence time of the control example compared to direct administration of the control example” value in data set [1] was “greatly increases the concentration and residence time of the control example in the lungs”. In addition, the concentration at 6 h in data set [1] (setting [4]) stood at 1070 ng/g. Besides, the concentration at 12 h in data set [1] (male, C57BL/6, mouse, lung, other: intratracheal, parent compound dosed, at 12 hours, read-out: drug concentration in the lungs) was 120 ng/g.

With `CC(C)[C@H](NC(=O)c1ccc(C(=O)NCC(=O)O)cc1)C(=O)N1CCC[C@H]1C(=O)N[C@@H](C(C)C)[B-]12OC(=O)C[N+]1(C)CC(=O)O2` (stereo partly drawn) [Example 2, N-(4-(((S)-3-methyl-1-((S)-2-(((R)-2-methyl-1-(6-methyl-4,8-dioxo-1,3,6,2-dioxazaborocan-2-yl)propyl)carbamoyl)pyrrolidin-1-yl)-1-oxobutan-2-yl)carbamoyl)benzoyl)glycine], the hydrolysis result was “about 50%” in data set [2] (acidic ALF buffer (pH 4.5), in about 15 hours) and “about 50%” in data set [2] (neutral Gamble's buffer (pH 7.4), at 2.5 hours). The hydrolysis in acetonitrile entry in data set [3] (up to 18 hours) is given as “did not hydrolyze”. The hydrolysis rate entry in data set [3] (anhydrous ethanol) was “about 0.5 % per hour”; in data set [3] (resolvent), “about 1 % hydrolysis per hour”.
